Tests used:
patients [1] = details: patients administered with Anacetrapib; cited from earlier work
CETP = CETP (Homo sapiens (Human), UniProt P11597); assay: Test for inhibition of cholesteryl ester transfer (in vitro); type: biochemical; details: human plasma as CETP source, LDL from healthy persons as acceptor, rHDL-agarose donor, 37° C.
From the text: Test for Inhibition of Cholesteryl Ester Transfer (In Vitro)
1. Construction of Cholesteryl Ester Donor
To construct a cholesteryl ester donor to be used in the test, radiolabeled recombinant HDL containing […] (GE healthcare, TRK886, 3.5 μCi/mg of apoA-1) and apoA-1 was synthesized. Then, rHDL-agarose having the recombinant HDL immobilized thereon by CNBr-activated Sepharose 4B (Amersham Biosciences, Sweden) resin was used in the test.
2. Cholesteryl Ester Transfer Test
As a protein source for cholesteryl ester transfer, plasma from healthy persons was used, and as a cholesteryl ester receptor, LDL from healthy persons was used. Samples were treated with each test compound to final concentrations of 16, 80, 400, 2000 and 10000 nM and analyzed in duplicate. For the cholesteryl ester transfer test, 20 μl of plasma, 50 μl of LDL (0.25 mg/ml) and 50 μl of rHDL-agarose (0.25 mg/ml) were added, and a solution containing a test compound was added, followed by reaction at 37° C. Then, centrifugation was performed at 4° C. for 3 minutes to stop the reaction, and 150 μl of the supernatant was taken and transferred to a 96-well plate for radioactivity measurement, and the radioactivity of the plate was measured with a beta-ray detector.
(§1) 3. Statistical Processing
The ratio of [^3H]-cholesteryl oleate from HDL to LDL was calculated and used as a result value, and from the result value, IC50 value was calculated using GraphPad Prism 5.0.

golden Syrian hamsters = assay: Test for anti-hyperlipidemic effect in hamsters (in vivo); details: Mesocricetus auratus, po, 3 mg/kg orally for 5 days, blood 4 hours after final administration, vs control; for inhibition in vivo at 3 mg/kg: read-out: Decrease in LDL-c (%); for change in vivo at 3 mg/kg: read-out: Increase in HDL-c (%)
From the text: Test for Anti-Hyperlipidemic Effect in Hamsters (In Vivo)
In this test, 8-week-old male golden Syrian hamsters were used. The breeding room was maintained at constant temperature and constant humidity and a 12-hr light/12-hr dark cycle. The animals were allowed access to feed and water ad libitum.
2. Anti-Hyperlipidemic Test in Hamsters
The test animals were acclimated for 1 week before use in the test. The test animals were divided according to body weight into several groups, each consisting of 5-8 animals, and were then administered orally with a dose of 3 mg/kg. A solvent control and a CETP inhibitor were dissolved in imwitor 742: tween 80 (1:1) and administered orally for 5 days, and at 4 hours after the final administration, blood was collected from the heart. The collected blood was centrifuged at 3000 rpm for 15 minutes, and the separated serum was measured for HDL-Cholesterol (Biosystem) and LDL-Cholesterol (Biosystem) using a biochemical analysis instrument (ILab 300 plus, Instrumentation Laboratory).
as §1
(§2) All test results were expressed as Mean±SEM, and to evaluate the effect of each test group, each test group was compared with the control group using one-way ANOVA test (Dunnett's test, p<0.001).

patients [2] = details: human, in vivo; cited from earlier work
patients [3] = details: human, in vivo; cited from earlier work; remark: listed apart in the source
[4] = test system: H295R cell line (human adrenal cortical tumor cells); type: cell-based; details: 24 hours, 100 nM of torcetrapib, 1 μM of test compounds
Description: Evaluation of the Ability of CETP Inhibitor to Secrete Blood Pressure-Hormone
Based on this, the secretion of blood pressure-increasing hormones from human adrenal cortical tumor cells was evaluated. The cell line H295R was purchased from ATCC (CRL-2128) and cultured in DMEM/F-12 medium (1% ITS, 2.5% Nu-serum). The H295R cell line was dispensed into a 24-well plate at a cell density of 1×10^5/well, and stabilized for 24 hours, after which the cells were starved for 24 hours using serum-free DMEM/F-12. Then, the cells were treated with each of 100 nM of torcetrapib and 1 μM of test compounds 554, 557, 574, 584, 586, 593, 618, 643, 650, 661, 681 and 695. At 24 hours after treatment with the drug or the compound, the supernatant was taken and stored at −20° C. The supernatant stored at −20° C. was thawed, and the amounts of aldosterone and cortisol secreted from the cells were measured using an aldosterone EIA kit (Cayman-10004377) and cortisol EIA kit (Cayman-500360).
2. Statistical Processing
as §2

patients [5] = details: cited from earlier work
[6] = test system: human adrenal cortical tumor cells; details: cited from earlier work

Chain of CETP (P11597 18-493): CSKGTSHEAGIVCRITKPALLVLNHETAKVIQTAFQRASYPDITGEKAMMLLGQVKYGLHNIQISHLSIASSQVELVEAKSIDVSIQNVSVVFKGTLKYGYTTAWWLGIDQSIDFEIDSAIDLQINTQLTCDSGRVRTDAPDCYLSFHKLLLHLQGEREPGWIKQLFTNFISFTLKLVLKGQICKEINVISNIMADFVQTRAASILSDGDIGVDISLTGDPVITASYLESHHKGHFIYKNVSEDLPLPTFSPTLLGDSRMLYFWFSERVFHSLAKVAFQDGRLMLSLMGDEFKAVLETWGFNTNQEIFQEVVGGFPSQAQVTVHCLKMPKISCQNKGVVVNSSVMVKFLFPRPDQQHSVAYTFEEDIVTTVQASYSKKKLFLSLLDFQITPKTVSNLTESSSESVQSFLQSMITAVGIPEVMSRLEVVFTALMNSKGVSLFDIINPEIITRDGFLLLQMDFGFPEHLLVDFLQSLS

For `COc1cc(F)c(C(C)C)cc1-c1ccc(C(F)(F)F)cc1CN1C(=O)O[C@H](c2cc(C(F)(F)F)cc(C(F)(F)F)c2)[C@@H]1C` [Anacetrapib], the HDL-c level increase (patients [1]) is given as 138% and the LDL-c level decrease (patients [1]) is given as 40%.

For `Cc1cc(C(=O)O)ccc1-c1cc(C2=C(CN3C(=O)O[C@H](c4cc(C(F)(F)F)cc(C(F)(F)F)c4)[C@@H]3C)CC(C)(C)CC2)ccc1F` [Compound 681, 5′-(2-(((4S,5R)-5-(3,5-bis(trifluoromethyl)phenyl)-4-methyl-2-oxooxazolidin-3-yl)methyl)-4,4-dimethylcyclohex-1-enyl)-2′-fluoro-2-methylbiphenyl-4-carboxylic acid], the IC50 (CETP) was 6.6 nM, the inhibition in vivo at 3 mg/kg (golden Syrian hamsters) was 29% and the change in vivo at 3 mg/kg (golden Syrian hamsters) was 25%.

`C[C@H]1[C@@H](c2cc(C(F)(F)F)cc(C(F)(F)F)c2)OC(=O)N1CC1=C(c2cc(-c3ccc(C(=O)O)cc3C(F)(F)F)ccc2F)CCC(C)(C)C1` [Compound 695, 3′-(2-(((4S,5R)-5-(3,5-bis(trifluoromethyl)phenyl)-4-methyl-2-oxooxazolidin-3-yl)methyl)-4,4-dimethylcyclohex-1-enyl)-4′-fluoro-2-(trifluoromethyl)biphenyl-4-carboxylic acid] gave an IC50 (CETP) of 6.4 nM, an inhibition in vivo at 3 mg/kg (golden Syrian hamsters) of 35% and a change in vivo at 3 mg/kg (golden Syrian hamsters) of 71%.

In the case of `CCC(CC)CC1(C(=O)Nc2ccccc2SC(=O)C(C)C)CCCCC1` [Dalcetrapib], the “effects (efficacy)” value (patients [2]) is given as “insufficient effects” and the side effects (patients [2]) is given as “does not have the side effects of Torcetrapib”.

In the case of `Cc1cc(C)c2c(c1)[C@@H](N(Cc1cc(C(F)(F)F)cc(C(F)(F)F)c1)c1nnn(C)n1)CCCN2C[C@H]1CC[C@H](C(=O)O)CC1` [Evacetrapib], the HDL-c levels (patients [3]) is listed as “increases HDL-c levels in a dose-dependent manner” and the “side effects such as blood pressure elevation” value (patients [3]) is listed as “does not cause side effects such blood pressure elevation”.

For `CCOC(=O)N1c2ccc(C(F)(F)F)cc2[C@@H](N(Cc2cc(C(F)(F)F)cc(C(F)(F)F)c2)C(=O)OC)C[C@H]1CC` [torcetrapib], the secretion of aldosterone [4] is given as “increased the secretion of the two hormones”, the secretion of cortisol [4] is given as “increased the secretion of the two hormones” and the “morbidity rate and mortality rate” value (patients [5]; combination of torcetrapib and atorvastatin compared to atorvastatin alone) is given as “increase”. The blood pressure (patients [5]; human, in vivo) was “causes an increase in blood pressure”, the mortality rate (patients [5]; human, in vivo) was “an increase in mortality rate” and the secretion of aldosterone [6] was “increased the secretion of aldosterone and cortisol”. The secretion of cortisol [6] was “increased the secretion of aldosterone and cortisol”.

Reference: US9493430B2, “Biaryl- or heterocyclic biaryl-substituted cyclohexene derivative compounds as CETP inhibitors” (CHONG KUN DANG PHARMACEUTICAL CORP., priority 2013, dated 2016)
